Experiments:
Type in all cases: in vivo
[1] = test system: barley net blotch fungus (Pyrenophora teres); experiment: Barley net blotch control test, foliar spray before inoculation; settings: 500 ppm sprayed on barley (NISHINOHOSHI); inoculated 2 days after spraying
Description: (§1) The control effect was evaluated by visually observing the area of lesion on each of test plants at the time of investigation, and comparing the area of lesion spots on a plant treated with the present compound with that on an untreated plant.
Each of plastic pots was filled with soil and barley (cultivar: NISHINOHOSHI) was sowed and grown in a greenhouse for 7 days. Then, each water dilution prepared by adjusting so as to contain a predetermined concentration (500 ppm) of any one compound of the present compounds 1, and 3 to 16 was sprayed over stems and leaves of the barley so that it sufficiently adhered to the surface of the leaves of the barley. After spraying, the plant was air-dried. After 2 days, an aqueous suspension containing spores of barley net blotch fungus (Pyrenophora teres) was sprayed to inoculate the spores. After completion of the inoculation, the plant was placed for 3 days in a greenhouse at 23° C. in the daytime and 20° C. at night under high humidity condition and cultivated in a greenhouse for 7 days, and then the area of lesion was investigated. As a result, the area of lesion on the plant treated with the present compound(s) 1, or 3 to 16 was 30% or less of that on an untreated plant.

[2] = test system: wheat leaf blotch fungus (Septoria tritici); experiment: Wheat leaf blotch control test, spray after inoculation; settings: 50 ppm sprayed on wheat (APOGEE) 3 days after inoculation
[3] = test system: target spot fungus (Corynespora cassiicola); experiment: Cucumber target spot control test, foliar spray before inoculation; settings: 200 ppm sprayed on cucumber (SAGAMI HANJIRO); inoculated one day after spraying; 7 days
Description: as §1
Each of plastic pots was filled with soil and cucumber (cultivar: SAGAMI HANJIRO) was sowed and grown in a greenhouse for 19 days. Then, each water dilution prepared by adjusting so as to contain a predetermined concentration (200 ppm) of the present compound 6 was sprayed over stems and leaves of the cucumber so that it sufficiently adhered to the surface of the leaves of the cucumber. After spraying, the plant was air-dried. After one day, an aqueous suspension containing spores of target spot fungus […]. After the inoculation, the plant was cultivated in a greenhouse at 24° C. in the daytime and 20° C. at night for 7 days, and then the area of lesion was investigated. As a result, the area of lesion on the plant treated with the present compound 6 was 30% or less of that on an untreated plant.

[4] = test system: wheat rust fungus (Puccinia recondita); experiment: Wheat rust control test, foliar spray before inoculation; settings: 200 ppm sprayed on wheat (SHIROGANE); inoculated 5 days after spraying
Description: as §1
Each of plastic pots was filled with soil and wheat (cultivar: SHIROGANE) was sowed and grown in a greenhouse for 9 days. Then, each water dilution prepared by adjusting so as to contain a predetermined concentration (200 ppm) of any one compound of the present compounds 12, and 14 to 16 was sprayed over stems and leaves of the wheat so that it sufficiently adhered to the surface of the leaves of the wheat. After spraying, the plant was air-dried and cultivated at 20° C. for 5 days under illumination, and then inoculated by sprinkling with spores of wheat rust fungus (Puccinia recondita). After the inoculation, the plant was placed at 23° C. for one day under dark and high humidity condition, and cultivated under illumination at 20° C. for 8 days, and then the area of lesion was investigated.

[5] = test system: cotton aphid (Aphis gossypii); experiment: Cotton aphid control test on sprayed cucumber; settings: 500 ppm, 20 mL sprayed on cucumber; adults and larvae; after 6 days
Description: Thirty (30) heads of cotton aphid (Aphis gossypii) (including adults and larvae) were released on the leaves of cucumber (cultivar: SAGAMI HANJIRO FUSHINARI) grown in a polyethylene cup until the first true leaf was developed. Next day, 20 mL of the test chemical solution was sprayed.
Control value (%)={1−(Cb×Tai)/(Cai×Tb)}×100
wherein symbols in the equation represent the followings: […]
Cb: Number of insects before spraying chemical solution in untreated area;
Cai: Number of surviving insects in untreated area;
Tb: Number of insects before spraying chemical solution in treated area; and
Tai: Number of surviving insects in treated area.

Cn1nnn(-c2cnn(C(C)(C)C)c2COc2ccn(-c3ccc(Cl)cc3)n2)c1=O [present compound 1, 1-(1-tert-butyl-5-{[1-(4-chlorophenyl)-1H-pyrazol-3-yl]oxymethyl}-1H-pyrazol-4-yl)-4-methyl-1,4-dihydrotetrazol-5-one]
area of lesion on treated plant relative to that on an untreated plant [1]: ≤ 30%

Cn1nnn(-c2cnn(C(C)(C)C)c2COc2nc(-c3ccc(Cl)cc3)cs2)c1=O [present compound 3]
area of lesion on treated plant relative to that on an untreated plant [2]: ≤ 30%

Cn1nnn(-c2cccnc2COc2ccn(-c3ccc(Cl)cc3)n2)c1=O [present compound 6, 1-(2-{[1-(4-chlorophenyl)-1H-pyrazol-3-yl]oxymethyl}-pyridin-3-yl)-4-methyl-1,4-dihydrotetrazol-5-one]
area of lesion on treated plant relative to that on an untreated plant [3]: ≤ 30%

COc1ccccc1-n1ccc(OCc2c(-n3nnn(C)c3=O)cnn2C(C)(C)C)n1 [present compound 12, 1-(1-tert-butyl-5-{[1-(2-methoxyphenyl)-1H-pyrazol-3-yl]oxymethyl}-1H-pyrazol-4-yl)-4-methyl-1,4-dihydrotetrazol-5-one]
area of lesion on treated plant relative to that on an untreated plant [4]: ≤ 30% | Control value [5]: ≥ 90%

— patent US20160272622A1, “TETRAZOLINONE COMPOUND AND USE THEREOF” (SUMITOMO CHEMICAL COMPANY, LIMITED, priority 2013, published 2016)
